Data on one compound can be found in patent publication US20100041756A1, “METHOD OF MODULATING B CELL FUNCTIONING” (priority 2004, published 2010).

Type in all cases: cell-based, mouse
For test [1], the system named is B cells stimulated with anti-CD40. The experiment in a line: Purified B cell proliferation, anti-CD40, 3H-thymidine incorporation (Example 4). How it is done:
(§1) FIG. 10 is a graphical representation depicting that 3,4-DAA and 3-HAA inhibit B and T cell proliferation in vitro. Purified B and T cells were stimulated for 72 h with anti-CD40 (a), or anti-CD3/anti-CD28 (b) respectively, in the presence of varying doses of 3,4-DAA, or 3-HAA.
(§2) A single cell suspension was prepared from spleen by mincing through a cell strainer, and erythrocytes were lysed using an ammonium chloride solution (Sigma, St Louis, Mo., USA). B cells were positively enriched by using anti-IgM MACS microbeads, and T cells were positively enriched using anti-CD4 MACS microbeads and the MACS system, according to the manufacturer's guidelines (Miltenyi Biotec, Bergisch Gladbach, Germany). Purity was assessed by flow cytometric analysis (B cell>90% CD19+, T cell>90% CD4+). Cells were cultured at 5×10^5 cells/ml in 200 μl complete RPMI, as above, in a flat bottom 96-well plate and cultured for 72 h. B cells were stimulated with anti-CD40 monoclonal antibody (10 μg/ml; BD), and T cells were stimulated with 5 μg/ml plate-bound anti-CD3 (BD), 5 μg/ml soluble anti-CD28 (BD). Tranilast, 3-HAA, or vehicle (DMSO) were incubated at concentrations stated with the cultures. 48 hours after stimulation, 100 μl culture medium was collected, and cells were pulsed with 1 μCi ^3H thymidine per well for 18 h. Cells were then harvested and plates assessed for incorporation. Each assay was performed on a minimum of 3 occasions. Data shown is of one representative experiment, and is expressed as mean+/−SD of triplicate in culture. IFN-γ, IL-10 and IL-5 levels was assessed in the culture medium by ELISA, as above.

The subject of test [2] is T cells stimulated with anti-CD3/anti-CD28. As to the kind of experiment: Purified T cell proliferation, anti-CD3/anti-CD28, 3H-thymidine incorporation (Example 4). How it is done:
as §1, §2
For orientation: Uptake of a labelled nucleoside into DNA is a usual measure of proliferation.

The test system is the same in test [3]. As to the kind of experiment: Cytokine production by stimulated T cells in vitro (ELISA). The protocol:
as §1, §2

As to `Nc1c(O)cccc1C(=O)O` [3-HAA, 3-Hydroxyanthranilic acid], the IC50 in test [1] (Mus musculus, B-cell, anti-CD40, 72 h, 3H-thymidine (FIG. 10A), read-out: IC50 for inhibition of B cell proliferation) is 64.7 µM; in test [2] (Mus musculus, T-cell, anti-CD3/CD28, 72 h, 3H-thymidine (FIG. 10B), read-out: IC50 for inhibition of T cell proliferation) it was 100 µM. Besides, in test [1] (anti-CD40, varying doses (FIG. 10A)), the B cell proliferation result is listed as “dose-dependently inhibited”. The T cell proliferation result in test [2] (anti-CD3/CD28, varying doses (FIG. 10B)) is listed as “dose-dependently inhibited”. In addition, in test [3] (FIG. 10C), the “IFN-γ production by T-cells” value is given as “dose-dependently reduced”. The “IL-10 production by T-cells” value in test [3] (FIG. 10D) was “increased”. Besides, the “IL-5 production by T-cells” value in test [3] (FIG. 10E) was “increased”.
